Measured values reported in patent publication US7247748B2, “Amide compounds and methods of using the same” (SmithKline Corporation, priority 2002, dated 2007).

Legend:
[1] = biological target: T1, LXRα ligand binding domain (Homo sapiens, UniProt Q13133); experiment: Ligand Sensing Assay for LXRα agonist activity; format: biochemical; details: 1 μM; over a background reading of 10000 fluorescence units
T1 construct: His tag; made in house; host or cells: E. coli BL21(DE3) by analogy with Test Method 1 (inferred)
T1 sequence (Q13133 183-447): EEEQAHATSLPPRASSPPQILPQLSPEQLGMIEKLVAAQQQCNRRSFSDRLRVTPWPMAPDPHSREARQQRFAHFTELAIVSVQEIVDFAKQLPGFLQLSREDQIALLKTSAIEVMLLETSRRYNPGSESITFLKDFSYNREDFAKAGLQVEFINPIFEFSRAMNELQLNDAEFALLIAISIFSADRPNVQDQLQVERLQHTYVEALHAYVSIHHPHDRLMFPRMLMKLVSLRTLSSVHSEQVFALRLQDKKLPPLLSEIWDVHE
T1 sequence (Q15788 676-700 partner): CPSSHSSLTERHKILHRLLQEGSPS
Description: (§1) Test Method 1: Ligand Sensing Assay (LiSA) for LXRβ Agonist Activity
(§2) This assay measures the recruitment of a peptide derived from the coactivator protein, SRC1, to the agonist-bound LXR[…]. Peptides derived from other nuclear receptor cofactors may be similarly prepared and assayed.
The biotinylated protein was incubated for 20–25 minutes at a concentration of 5 nM in assay buffer (50 mM NaF, 50 mM MOPS-pH 7.5, 0.1 mg/ml FAF-BSA, 0.05 mM CHAPS, 10 mM DTT) with equimolar amounts of streptavidin-AlloPhycoCyanin (APC, Molecular Probes). […]
49 uL of the protein/peptide mixture was added to each well of an assay plate containing 1 ul of test compound serial diluted in 100% DMSO. […] The plates were incubated at room temp 2-hours and then counted on a Wallac Victor V fluorescent plate reader. […]
The assay for LXRα was run according to the procedures of Test Method 1, above using his-tagged LXRα ligand binding domain (amino acids 183–447 of Genbank accession number U22662, with the 14th amino acid corrected to A from R). In this assay 1 μM 24(S),25-epoxycholesterol gave a reading of 20000 fluorescence units over a background reading of 10000 fluorescence units.

[2] = biological target: T2, human LXRβ ligand binding domain (Homo sapiens, UniProt P55055); experiment: Ligand Sensing Assay (LiSA) for LXRβ agonist activity (SRC1 peptide recruitment); format: biochemical; details: 1 μM; over a background reading of 10000 fluorescence units
T2 construct: made in house; host or cells: E. coli BL21(DE3), vector pRSETa
T2 sequence (P55055 184-460 limits assumed): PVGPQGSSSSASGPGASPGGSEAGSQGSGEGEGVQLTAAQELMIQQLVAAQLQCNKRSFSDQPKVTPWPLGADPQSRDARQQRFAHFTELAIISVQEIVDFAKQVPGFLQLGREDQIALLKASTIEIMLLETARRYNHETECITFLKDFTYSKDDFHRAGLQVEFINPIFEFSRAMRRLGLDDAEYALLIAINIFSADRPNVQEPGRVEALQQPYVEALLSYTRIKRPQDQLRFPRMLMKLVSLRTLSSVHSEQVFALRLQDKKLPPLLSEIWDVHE
T2 sequence (Q15788 676-700 partner limits assumed): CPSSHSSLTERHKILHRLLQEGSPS
Text: as §1, §2
To generate the human LXRβ ligand binding domain suitable for LiSA, a modified polyhistidine tag (MKKGHHHHHHG) (SEQ ID No. 1) was fused in frame to the human LXRβ ligand binding domain (amino acids 185–461 of Genbank accession number U07132) and subcloned into the expression vector pRSETa (Invitrogen) under the control of an IPTG inducible T7 promoter. The human LXRβ ligand binding domain was expressed in E. coli strain BL21(DE3). Ten-liter fermentation batches were grown in Rich PO4 media with 0.1 mg/mL Ampicillin at 25° C. for 12 hours, cooled to 9° C. and held at that temperature for 36 hours to a density of OD600=14. […]
Typically 25–50 g of cell paste is resuspended in 250–500 mL TBS, pH 8.0 (25 mM Tris, 150 mM NaCl). […] After washing to baseline absorbance with equilibration buffer, the column is washed with approximately one column volume of TBS pH […] containing 95 mM imidazole. […] After washing to baseline absorbance with the dilution buffer the protein is eluted with a gradient from 50–500 mM NaCl. […]

`C[C@H](CC[C@@H]1OC1(C)C)[C@H]1CC[C@H]2[C@@H]3CC=C4C[C@@H](O)CC[C@]4(C)[C@H]3CC[C@]12C` [24(S),25-epoxycholesterol] gave a reading [1] of 20000 fluorescence units and a reading [2] of 20000 fluorescence units.
